Results from patent publication US20240208984A1, “BIVALENT LIGANDS TO UNDERSTAND DIMERIZATION OF THE MU OPIOID RECEPTOR AND THE CHEMOKINE RECEPTOR CCR5 IN NEUROLOGICAL DISORDERS” (priority 2021, published 2024).
Like-named read-outs stand apart in the source and are kept apart here.

Assays:
mouse MOR = mouse MOR (Mus musculus (Mouse), UniProt P42866); experiment: In vitro MOR radioligand binding assay; conditions: [3H]naloxone radioligand; mMOR-CHO; mean ± SEM; read-out: MOR Radioligand Binding Affinity Ki
Procedure: In vitro MOR radioligand binding studies. All bivalent ligands were first tested for their binding affinity to the MOR. The competitive radioligand binding assay was conducted using monoclonal mouse MOR expressed in CHO cell lines (mMOR-CHO).
In vitro MOR radioligand binding assay The competition binding assay was conducted using monoclonal mouse MOR expressed in Chinese hamster ovary (CHO) cell lines. In this assay, 30 μg of membrane protein was incubated with the radioligand [^3H] naloxone in the presence of different concentrations of tested compounds in TME buffer (50 mM Tris, 3 mM MgCl2, and 0.2 mM EGTA, pH 7.4) for 1.5 h at 30° C. The bound radioligand was separated by filtration using a Brandel harvester. […] The IC50 values were determined and converted to Ki values using the Cheng-Prusoff equation: Ki=IC50/[1+([L*]/KD)], where [L*] is the concentration of the radioligand and KD is the KD of the radioligand was determined.73

mouse mu opioid receptor = mouse mu opioid receptor (Mus musculus (Mouse), UniProt P42866); experiment: Calcium mobilization assay in mMOR-CHO cells; format: cell-based
Procedure: Calcium mobilization assay results in mMOR-CHO cells. The pharmacological profiles of the three newly prepared MOR bivalent ligands were further characterized for their effects on MOR-dependent intracellular Ca^2+ signaling in an mMOR-CHO cell line that was transfected with chimeric Gqi5 protein as previously described.
A CHO cell line stably expressing the mouse mu opioid receptor (mMOR-CHO) was used for this assay. The cells were transfected with Gαqi5 for 4 h and then plated (10,000 cells/well) to black 96-well plates with clear bottoms (Greiner Bio-One). After 24 h of incubation, the culture medium was removed, and the cells were washed with assay buffer (50 mL of HBSS, 1 mL of HEPES, 250 μL of probenecid, 50 μL of 1 mM CaCl2, and 50 μL of 1 mM MgCl2). The tested compounds were dissolved in DMSO as a stock solution for the assay (1 M). For agonist assays, cells were then incubated with 50 μL/well loading buffer (6 mL of assay buffer, 24 μL of Fluo4-AM solution (Invitrogen), and 12 μL of probenecid solution) for 60 min. Following incubation, different concentrations of the tested compounds were added by a FlexStation3 microplate reader (Molecular Devices) and read at ex494/em516. Each concentration was run in triplicate. For antagonism studies, the cells were incubated with the same loading buffer as the agonist assay for 60 min. Then, different concentrations of the tested compounds (20 μL/well) were manually added to each well followed by another 15 min of incubation. […] Each concentration was run in triplicate. The corresponding IC50 value of each compound was calculated by non-linear regression using GraphPad Prism 8.0.1 (GraphPad Software, San Diego, CA).

[1] = target: Rhesus macaque chemokine CCR5 receptors (Macaca mulatta (Rhesus macaque), UniProt P61813); experiment: In vitro CCR5 radioligand binding assay; conditions: [125I]MIP-1α radioligand; Chem-1 cells; Cheng-Prusoff; mean ± SEM; read-out: CCR5 Radioligand Binding Affinity Ki
Procedure: In vitro CCR5 radioligand binding studies. To verify the binding affinity of the bivalent ligands to the CCR5, the competitive radioligand binding assay was conducted in recombinant rhesus macaque CCR5-expressing Chem-1 cells, and macrophage inflammatory protein 1 beta (MIP-1β) was used as a control.
The CCR5 competitive radioligand binding assay was conducted following previously reported studies.74, 75 Rhesus macaque chemokine CCR5 receptors expressed in Chem-1 cells are assayed in modified HEPES buffer (50 mM HEPES, 1 mM CaCl2, 5 mM MgCl2, 0.2% BSA, pH 7.4). 3 μg of membrane protein was incubated with 0.10 nM [^125I]MIP-1α in the presence of six concentrations of tested compounds (10 μM, 1 μM, 0.1 μM, 10 nM, 1 nM, and 0.1 nM) for 90 min at 25° C. Non-specific binding is estimated in the presence of 0.1 μM MIP-1β.

CCR5 = CCR5 (Homo sapiens (Human), UniProt P51681); experiment: Calcium mobilization assay in HOS-CCR5 cells; format: cell-based
Procedure: We then conducted the calcium mobilization assay to further test both the agonist and antagonist properties of the newly synthesized compounds in the HOS-CCR5 (stably transfected for the expression of CCR5) cells using our reported protocol, as calcium mobilization is associated with the activation of CCR5. Prior to the assay, the HOS-CCR5 cells were transiently transfected with a Gqi5 to boost calcium signaling levels.
In the antagonism assay, these compounds were assessed for their ability to inhibit CCL5-stimulated Ca^2+ mobilization.
HOS-CCR5 cells were transfected with Gqi5 pcDNA16 using Lipofectamine 2000 (Invitrogen) according to the manufacturer's recommended procedure and maintained in RPMI 1640 supplemented with 10% fetal bovine serum, 100 μg/mL penicillin, 100 μg/mL streptomycin, and 1 mg/mL G418 at 37° C. and 5% C02. 48 h after transfection, a total of 2,500,000 cells were spun down and brought back up in 8 mL of 50:1 HBSS: HEPES assay buffer. Cells were then plated at 25,000 cells per well into a clear bottom, black 96-well plate (Greiner Bio-one) and 50 μL of Fluo4 loading buffer [40 μL of 2 μM Fluo4-AM (Invitrogen), 100 μL of 2.5 mM probenecid, in 5 mL of assay buffer] was added to bring the volume up to 130 μL. After incubating for 45 min, 50 μL of varying concentrations of tested compounds were added and the plate was incubated for an additional 15 min. Plates were then read on a FlexStation3 microplate reader (Molecular Devices) at 494/516 ex/em for a total of 120 s. After 16 s of reading, 20 μL of 200 nM CCL5 (Biosource) in assay buffer, or assay buffer alone, was added to the wells to bring the total volume up to 200 μL. The changes in calcium mobilization were monitored and peak height values were obtained using SoftMaxPro software (Molecular Devices). Non-linear regression curves and IC50 values were generated using GraphPad Prism 8.0.1 (GraphPad Software, San Diego, CA). All experiments were repeated at least three times.

HIV-1BaL = HIV-1BaL infection assay in MOR-CCR5 co-expressed TZM-b1 cells; format: cell-based; conditions: read-out: Inhibition of HIV-1BaL infection EC50
Procedure: CCR5-expressing TZM-b1 cells co-express an HIV-1 long-terminal repeat (LTR)-firefly luciferase reporter that can be activated by Tat (trans-activator of transcription) in cells expressing HIV. […] To initially determine whether the co-expression of MOR affected HIV-1 entry/expression, OPRM1- or control plasmid-transfected TZM-b1 cells were exposed to varying concentrations of HIV-1BaL and HIV-1 entry was calculated based on LTR-driven luciferase activity.
HIV-1BaL.01 was kindly donated and expanded in Phytohemagglutinin (PHA)-activated Peripheral Blood Mononuclear Cells (PBMCs). The amount of viral particles was determined by commercial ELISA for p24 capsid antigen (Zeptometrix) and aliquots were stored at −80° C. The TZM-b1, a cell line contained integrated copies of luciferase under control of the HIV-1 long-terminal repeat (LTR), were kindly donated.
Cells were transfected with plasmid containing GFP-tagged human opioid receptor mu 1 gene (OPRM1; Origene) or with the original empty vector also containing GFP (control plasmid; Origene) and selected for 2 weeks with 2 mg/ml G418 (Invivogen) in DMEM (Hyclone) supplemented with 1×MEM Non-essential amino acids (Gibco), 10% heat-inactivated FBS (Hyclone) and 100 U Penicillin-0.1 mg/ml Streptomycin (Sigma). Then, GFP+ cells were sorted out twice by flow cytometry (BDFACSAria model, Becton-Dickinson) and maintained in the conditions mentioned above with 800 μg/ml G418. For the infection, cells were detached from 25 cm2 flasks with 0.25% Trypsin (Sigma), washed by centrifugation (400 g—10 mins) and viable cells determined by Trypan blue (Sigma) exclusion. […] Luciferase activity was evaluated following the addition of 100 μL/well of 2× luciferase substrate containing lysis buffer (BRIGHT-GLO™ Luciferase Substrate, Promega) after 2-3 days of infection.
Luminescence, reported as relative luminescence units (RLU), was evaluated in PHERASTAR® FS plate reader and results expressed as percentage of inhibition relative to vehicle-treated, infected cells (100% infection).

[2] = test system: HIV-1BaL Env-pseudotyped Luc-expressing virus; experiment: HIV-1 infection assay in PHA-stimulated PBMC cells; format: cell-based; conditions: PHA-stimulated PBMCs, 100 nM
Procedure: Peripheral blood mononuclear cells (PBMCs) include large numbers of CCR5-expressing leukocytes and are susceptible to infection by R5-tropic HIV-1 strains.
In a 24-well plate, PHA-stimulated PBMC cells from healthy donors were infected by incubation with the HIV-1BaL.01 env-pseudotyped Luc virus. A concentration of HIV-1 p24 50 pg/106 cells was used, and uninfected cells served as a negative control. […] After approximately 18-20 h, the supernatant was removed and stored at −80° C., cells were rinsed twice with PBS and lysed. The lysate was subsequently tested for the relative Tat protein expression by using a luciferase assay system (Promega). Luciferase activity was measured using a PHERASTAR® FS plate reader (BMG Labtech).

Sequence of CCR5 (P51681 whole entry): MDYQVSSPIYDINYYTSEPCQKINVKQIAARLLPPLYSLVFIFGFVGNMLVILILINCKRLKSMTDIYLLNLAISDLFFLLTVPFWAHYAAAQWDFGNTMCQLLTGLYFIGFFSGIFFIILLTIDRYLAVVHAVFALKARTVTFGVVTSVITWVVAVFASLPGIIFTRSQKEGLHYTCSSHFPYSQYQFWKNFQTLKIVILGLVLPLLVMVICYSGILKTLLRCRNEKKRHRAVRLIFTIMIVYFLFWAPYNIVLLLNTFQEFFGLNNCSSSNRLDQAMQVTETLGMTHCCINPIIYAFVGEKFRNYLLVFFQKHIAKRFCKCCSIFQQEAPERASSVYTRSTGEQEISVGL
Sequence of mouse mu opioid receptor (P42866 whole entry, looked up): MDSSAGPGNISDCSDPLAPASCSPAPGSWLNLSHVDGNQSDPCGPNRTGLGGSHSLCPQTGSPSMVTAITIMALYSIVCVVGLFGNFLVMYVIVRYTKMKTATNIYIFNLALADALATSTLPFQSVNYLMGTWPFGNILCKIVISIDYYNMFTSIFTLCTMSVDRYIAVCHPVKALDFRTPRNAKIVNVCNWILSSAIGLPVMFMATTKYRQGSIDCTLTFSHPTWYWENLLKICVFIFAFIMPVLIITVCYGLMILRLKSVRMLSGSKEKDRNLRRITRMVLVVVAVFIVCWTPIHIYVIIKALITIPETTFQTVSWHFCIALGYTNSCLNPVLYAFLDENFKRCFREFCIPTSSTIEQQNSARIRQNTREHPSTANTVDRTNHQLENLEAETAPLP
Sequence of mouse MOR (P42866 whole entry, looked up): as the sequence (P42866 whole entry, looked up) above
Procedure for GHOST CCR5 cells: These compounds were concurrently assessed for cytotoxicity in GHOST-CCR5-expressing cells using the XTT assay. […] The therapeutic index (TI, TC50/EC50) values were calculated if applicable.
100 μL of GHOST CCR5 cells at a density of 1×10^4 cells/well in 10% complete DMEM (10% FBS with 1% L-glutamine and 1% Penicillin/Streptomycin) media were plated in a 96-well flat bottom plate and incubated for 24 h at 37° C./5% CO2. Following the incubation, 100 μL of each compound at 6 concentrations were added in triplicate to both efficacy and toxicity plates followed by 100 μL of HIV-1BaL at a pre-determined titer to the plates being evaluated for efficacy and 50 μL of complete DMEM to the plates being evaluated for cytotoxicity. The cultures were incubated for 6 days at 37° C./5% CO2. Following the incubation, 50 μL of cell culture supernatant was removed from the wells of the efficacy plates for subsequent evaluation of virus content by reverse transcriptase activity assay. The toxicity plates being evaluated for cytotoxicity were stained with XTT.
TC50 values for the tested compounds were derived by measuring the reduction of the tetrazolium dye XTT (2,3-bis(2-methoxy-4-nitro-5-sulfophenyl)-5-[(phenylamino)carbonyl]-2H-tetrazolium hydroxide). XTT in metabolically active cells is metabolized by the mitochondrial enzyme NADPH oxidase to a soluble formazan product. XTT solution was prepared as a stock of 1 mg/mL in RPMI-1640 without additives. Phenazine methosulfate (PMS) solution was prepared at 0.15 mg/mL in DPBS and stored in the dark at −20° C. XTT/PMS stock was prepared immediately before use by adding 40 μL of PMS per mL of XTT solution. 50 μL of XTT/PMS was added to each well of the plate and the plate was incubated for 4 h at 37° C. The plates were sealed and inverted several times to mix the soluble formazan product and the plate was read at 450 nm (650 nm reference wavelength) with a Molecular Devices SPECTRAMAX® Plus 384 96 well format spectrophotometer.

In the case of `CC(C)c1nnc(CCNC(=O)COCC(=O)NCCCCCCCNC(=O)COCC(=O)NC2CC[C@@]3(O)[C@H]4Cc5ccc(O)c6c5[C@@]3(CCN4CC3CC3)[C@H]2O6)n1C1CC2CCC(C1)N2CC[C@H](NC(=O)C1CCC(F)(F)CC1)c1ccccc1` (some centres unmarked) [VZMC013], the Ki (mouse MOR) is reported as 6.05 nM, the “MOR agonism in Ca2+ mobilization” value (mouse mu opioid receptor; agonist mode, varying concentrations) is reported as “No agonism was observed” and the IC50 (mouse mu opioid receptor; read-out: Inhibition of DAMGO Induced Ca2+ Mobilization IC50, mMOR-CHO transfected with Gqi5, DAMGO 500 nM, mean ± SEM) is reported as 50 ± 2.45 nM. For the same compound, the Ki [1] was 3.29 nM, the IC50 (CCR5; HOS-CCR5 transfected with Gqi5, mean ± SEM, read-out: Inhibition of CCL5-stimulated Intracellular Ca2+ Mobilization IC50) was 57.5 nM and the “CCR5 activation (agonism) in Ca2+ mobilization” value (CCR5; agonist mode, range of concentrations tested) was “none of these compounds appeared to activate CCR5”. For the same compound, the EC50 (HIV-1BaL; OPRM1 transfected TZM-b1 cells, morphine 100 μM added) was 247 nM, the EC50 (HIV-1BaL; OPRM1 transfected TZM-b1 cells, without morphine) was 368 nM and the EC50 (HIV-1BaL; control plasmid transfected TZM-b1 cells) was 610 nM. For the same compound, the “decrease in HIV expression” value ([2]; co-exposed to DAMGO 10 nM) was 69%, the “decrease in HIV expression” value ([2]; co-exposed to morphine 10 nM) was 55% and the “reduction in luminescence (viral entry)” value ([2]; no opioid) was 22%. For the same compound, the “Cytotoxicity TC50” value (GHOST CCR5 cells; GHOST CCR5 cells, XTT, triplicate) was over 100000 nM and the cell viability (GHOST CCR5 cells; any concentration ≤100 μM, untreated cells = 100%) was about 100%.
